From US10144748B1, “Anti-inflammatory zinc(II) complex” (KING SAUD UNIVERSITY, priority 2018, dated 2018)

Test system: carrageenan-induced hind paw edema
Assay: carrageenan-induced hind paw edema (anti-inflammatory effect in vivo)
Design: species or system Wistar rats
Details: for anti-inflammatory effect in vivo (in words): Wistar rats, 10 mg/kg; for time up to which the anti-inflammatory effect increased: after oral administration, diclofenac 4 mg/kg, Zn(II) complex 10 mg/kg, measured at 1-6 hours; for percent inhibition of inflammation (paw edema) vs control group: male Wistar rats, half an hour before carrageenan
Experimental: The crystalline zinc complex was evaluated for anti-inflammatory effects in vivo in Wistar rats, compared to the known NSAID diclofenac as a standard treatment.
Eighteen male Wistar rats (weighing from 200-250 g) were obtained from the “Animal Care and Use Center of College of Pharmacy at King Saud University, Riyadh, Saudi Arabia”. Institutional guidelines were followed for these studies. All rats were provided standard laboratory conditions of “temperature and relative humidity. The rats were kept in plastic cages and given free access to standard laboratory pellet diet and water ad libitum.
The anti-inflammatory studies were performed by the standard carrageenan-induced hind paw edema method of inducing acute swelling, known in the industry and widely reported in the literature. The rats were randomly divided into 3 groups of 6 rats. Group I rats were given carrageenan only, and served as control group. Group II and III rats were given standard diclofenac and the studied Zn(II) complex, respectively.
The standard diclofenac (4 mg/kg) and the Zn(II) complex (10 mg/kg) were administered orally half an hour before sub plantar injection of carrageenan in the right paw. Paw edema was induced by injecting 0.1 ml of a 1% w/v suspension of carrageenan in purified water. The initial and final paw volume of each rat was measured at regular interval of time (1, 2, 3, 4, 5 and 6 hours) after injection, using a digital Plethysmometer (Ugo Basile, Italy). The percent inhibition of edema produced by the diclofenac- and zinc(II) complex-treated groups was determined with respect to the control group, using the standard formula used with this type of test, as known in the industry and reported in the literature. The inhibition of inflammation was analyzed statistically by applying a student t-test, using the MS Excel 2010 spreadsheet program. A P value <0.05 was considered statistically significant.

| Molecule | anti-inflammatory effect in vivo (in words) (10 mg/kg oral) | anti-inflammatory effect in vivo (in words) (10 mg/kg oral, listed as zinc complex) | time up to which the anti-inflammatory effect increased | percent inhibition of inflammation (paw edema) vs control group (10 mg/kg oral, 6 hours post oral administration) [%] | percent inhibition of inflammation (paw edema) vs control group (4 mg/kg oral, 5 hours past oral administration) [%] |
| --- | --- | --- | --- | --- | --- |
| bis(chloro)-(N,N′-(2,2-dimethylpropane-1,3-diyl)bis(1-(2-chlorophenyl)methanimine))-zinc(II) complex [Zn(II) complex] | good anti-inflammatory effect | good degree of anti-inflammatory activity | about 6 hours | 56.39 | – |
| O=C(O)Cc1ccccc1Nc1c(Cl)cccc1Cl [diclofenac, reference compound] | – | – | about 5 hours | – | 82.31 |
